Experimental data reported in patent US11390617B2, “Methods of treating non-Hodgkin lymphoma using 2-(2,6-dioxopiperidin-3-yl)-4-((2-fluoro-4-((3-morpholinoazetidin-1-yl)methyl)benzyl)amino)isoindoline-1,3-dione” (Celgene Corporation, priority 2019, dated 2022).

Tests used:
Assay in all cases: NHL cell line viability/apoptosis 384-well flow cytometry assay
Format in all cases: cell-based
Farage = Farage (DLBCL), 120 hours
Description: (§1) The following exemplary anti-proliferative assay uses exemplary non-Hodgkin lymphoma (NIL) cell lines (including diffuse large B-cell lymphoma (DLBCL), follicular lymphoma (FL), and mantle cell lymphoma (MCL)) (Table 5). The in vitro growth inhibitory activity of Compound 1 described herein was evaluated using a 384-well flow cytometry assay.
(§2) The cell lines in Table 5 were plated in 384-well flat bottom plates and assessed with increasing concentrations of compound ranging from 0.00015 to 10 μM or dimethyl sulfoxide (DMSO) control. The final concentration of DMSO was 0.1% (v/v). Following the addition of Compound 1 or DMSO and incubation for 120 hours, cell number and cell death were analyzed by flow cytometry (Attune®, Thermo Fisher) using Annexin V and the live-cell impermeant DNA dye, DRAQ7. Phosphatidylserine translocates from the inner layer to the outer layer of the cell membrane early in apoptosis and Annexin V binds to the exposed phosphatidylserine found on the surface of an apoptotic cell. The vital dye DRAQ7 is excluded by intact live cells and only stains cells that have died as a result of apoptosis or necrosis.
(§3) Flow cytometry data analysis was then performed using the Flow Jo_v10 software to determine the number of viable cells (Annexin V and DRAQ7 double negative staining cells) and percentage of apoptotic cells (Annexin V positive cells) for each condition. The live cell count for every concentration was normalized to the DMSO control (considered as 100%) to calculate the percentage of viable cells remaining after treatment and graphed using GraphPad Prism 7.03. The IC50 (50% inhibitory concentration) and Emax (maximum efficacy achieved) values were then calculated by performing nonlinear regression curve fitting using log(inhibitor) vs. normalized response—variable slope analysis on GraphPad Prism 7.03. Area under the curve (AUC) was calculated by performing area under curve analysis on GraphPad Prism 7.03. Similarly, for apoptosis analysis, the percentage of apoptosis combining both “early” (Annexin V positive and DRAQ7 negative) and “late” apoptosis (Annexin V and DRAQ7 positive) cell gates relative to DMSO was graphed using GraphPad Prism 7.03. The AUC, EC50 (concentration of Compound 1 that produces half-maximal apoptosis response) and Ymax (maximal percentage of apoptosis achieved) values from apoptosis curves were calculated by performing area under curve analysis and nonlinear regression curve fitting using log(agonist) vs. normalized response—Variable slope analysis on GraphPad Prism 7.03.
(§4) In Table 6, dose-response proliferation curves for the panel of NHL cell lines and non-linear curve-fit regression were used to determine IC50, AUC, and Emax for % viable cells (Emax for viability varies between 100 at low doses and 0 at high doses, which corresponds to inhibition of all viable cells), and dose-response apoptosis curves were used to determine the EC50, AUC, and Ymax for % apoptosis (Ymax for apoptosis varies from 0 at low doses and 100 at higher doses which corresponds to death of all cells). Tumor cells were exposed to serial dilutions (0.00015 to 10 μM) of Compound 1 or dimethyl sulfoxide (DMSO) control for 5 days. Viability and apoptosis for all cell lines was determined by Annexin V/[…] flow cytometry.

OCI-LY10 = OCI-LY10 (DLBCL), 120 hours
Description: as §1, §2, §3, §4

OCI-LY18 = OCI-LY18 (DLBCL), 120 hours
Description: as §1, §2, §3, §4

OCI-LY19 = OCI-LY19 (DLBCL), 120 hours
Description: as §1, §2, §3, §4

OCI-LY7 = OCI-LY7 (DLBCL), 120 hours
Description: as §1, §2, §3, §4

SU-DHL-1 = SU-DHL-1 (DLBCL), 120 hours
Description: as §1, §2, §3, §4

U-2932 = U-2932 (DLBCL), 120 hours
Description: as §1, §2, §3, §4

U-2946 = U-2946 (DLBCL), 120 hours
Description: as §1, §2, §3, §4

VAL = VAL (DLBCL), 120 hours
Description: as §1, §2, §3, §4

WSU-DLCL2 = WSU-DLCL2 (DLBCL), 120 hours
Description: as §1, §2, §3, §4

WSU-DLCL = WSU-DLCL (DLBCL), 120 hours
Description: as §1, §2, §3, §4

[1] = read-out: IC50 (% Viable Cells)
[2] = Homo sapiens, read-out: IC50 (% Viable Cells)

For `O=C1CC[C@H](N2C(=O)c3cccc(NCc4ccc(CN5CC(N6CCOCC6)C5)cc4F)c3C2=O)C(=O)N1` [Compound 1, (S)-2-(2,6-dioxopiperidin-3-yl)-4-((2-fluoro-4-((3-morpholinoazetidin-1-yl)methyl)benzyl)amino)isoindoline-1,3-dione], the “AUC (% Viable Cells)” value (Farage) was 10.16, the “AUC (Apoptosis)” value (Farage) was 728.7 and the EC50 (Farage) was 30.2 nM. The “Emax (% Viable Cells)” value (Farage) was 0.7936%, the “Ymax (Apoptosis)” value (Farage) was 84.17% and the IC50 (Farage; [1]) was 2.38 nM. The EC50 (OCI-LY10; Homo sapiens) was 320 nM, the IC50 (OCI-LY10; [2]) was 14.2 nM and the “AUC (% Viable Cells)” value (OCI-LY10) was 125.3. For the same compound, the “AUC (Apoptosis)” value (OCI-LY10) was 188.9, the “Emax (% Viable Cells)” value (OCI-LY10) was 10.16% and the “Ymax (Apoptosis)” value (OCI-LY10) was 22.31%. For the same compound, the EC50 (OCI-LY18; Homo sapiens) was 2.98 nM, the IC50 (OCI-LY18; [2]) was 0.944 nM and the “AUC (% Viable Cells)” value (OCI-LY18) was 1.965. The “AUC (Apoptosis)” value (OCI-LY18) was 965.2, the “Emax (% Viable Cells)” value (OCI-LY18) was 0.05973% and the “Ymax (Apoptosis)” value (OCI-LY18) was 97.44%. For the same compound, the EC50 (OCI-LY19; Homo sapiens) was 283 nM, the IC50 (OCI-LY19; [2]) was 29.4 nM and the “AUC (% Viable Cells)” value (OCI-LY19) was 72.49. For the same compound, the “AUC (Apoptosis)” value (OCI-LY19) was 706.2, the “Emax (% Viable Cells)” value (OCI-LY19) was 3.228% and the “Ymax (Apoptosis)” value (OCI-LY19) was 80.91%. For the same compound, the EC50 (OCI-LY7; Homo sapiens) was 16.3 nM, the IC50 (OCI-LY7; [2]) was 6.48 nM and the “AUC (% Viable Cells)” value (OCI-LY7) was 48.18. For the same compound, the “AUC (Apoptosis)” value (OCI-LY7) was 682.7, the “Emax (% Viable Cells)” value (OCI-LY7) was 4.191% and the “Ymax (Apoptosis)” value (OCI-LY7) was 71.18%. The EC50 (SU-DHL-1; Homo sapiens) was 1.1 nM, the IC50 (SU-DHL-1; [2]) was 0.549 nM and the “AUC (% Viable Cells)” value (SU-DHL-1) was 31.14. The “AUC (Apoptosis)” value (SU-DHL-1) was 690.1, the “Emax (% Viable Cells)” value (SU-DHL-1) was 2.485% and the “Ymax (Apoptosis)” value (SU-DHL-1) was 73.83%. For the same compound, the EC50 (U-2932; Homo sapiens, U2932) was 567 nM, the IC50 (U-2932; Homo sapiens, U2932, read-out: IC50 (% Viable Cells)) was 36 nM and the “AUC (% Viable Cells)” value (U-2932) was 163.7. For the same compound, the “AUC (Apoptosis)” value (U-2932) was 212.8, the “Emax (% Viable Cells)” value (U-2932) was 12.8% and the “Ymax (Apoptosis)” value (U-2932) was 25.81%. For the same compound, the “AUC (% Viable Cells)” value (U-2946) was 45.47, the “AUC (Apoptosis)” value (U-2946) was 762.6 and the EC50 (U-2946) was 192 nM. For the same compound, the “Emax (% Viable Cells)” value (U-2946) was 0.4821%, the “Ymax (Apoptosis)” value (U-2946) was 93.34% and the IC50 (U-2946; [1]) was 4.6 nM. The “AUC (% Viable Cells)” value (VAL) was 14.62, the “AUC (Apoptosis)” value (VAL) was 936.7 and the EC50 (VAL) was 0.605 nM. The “Emax (% Viable Cells)” value (VAL) was 0.9632%, the “Ymax (Apoptosis)” value (VAL) was 95.68% and the IC50 (VAL; [1]) was 0.57 nM. For the same compound, the EC50 (WSU-DLCL2; Homo sapiens, WSUDLCL2) was 84.7 nM, the IC50 (WSU-DLCL2; Homo sapiens, WSUDLCL2, read-out: IC50 (% Viable Cells)) was 16.9 nM and the “AUC (% Viable Cells)” value (WSU-DLCL2) was 36.7. The “AUC (Apoptosis)” value (WSU-DLCL2) was 858.9, the “Emax (% Viable Cells)” value (WSU-DLCL2) was 1.387% and the “Ymax (Apoptosis)” value (WSU-DLCL2) was 92.1%. For the same compound, the “AUC (% Viable Cells)” value (WSU-DLCL) was 341.9, the “AUC (Apoptosis)” value (WSU-DLCL) was 565.1 and the EC50 (WSU-DLCL) was 18 nM. For the same compound, the “Emax (% Viable Cells)” value (WSU-DLCL) was 27.83%, the “Ymax (Apoptosis)” value (WSU-DLCL) was 59.91% and the IC50 (WSU-DLCL; [1]) was 142 nM.
